Molecular target: T1, KDM4B (Homo sapiens, UniProt O94953)
T1 sequence (O94953 1-366): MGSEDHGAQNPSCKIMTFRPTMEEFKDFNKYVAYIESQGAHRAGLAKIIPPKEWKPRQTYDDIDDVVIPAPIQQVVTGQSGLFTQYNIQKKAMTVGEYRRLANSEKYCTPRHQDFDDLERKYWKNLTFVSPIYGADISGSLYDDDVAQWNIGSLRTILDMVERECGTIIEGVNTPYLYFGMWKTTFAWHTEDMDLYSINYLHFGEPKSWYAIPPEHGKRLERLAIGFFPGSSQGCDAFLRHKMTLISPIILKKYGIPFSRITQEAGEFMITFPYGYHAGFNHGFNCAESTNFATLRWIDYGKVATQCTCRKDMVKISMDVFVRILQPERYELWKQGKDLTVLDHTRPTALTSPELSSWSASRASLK
Test: co-crystal structure
Format: binding

- Kd: 0.105 µM
SMILES: CN(c1ccccc1)c1ccc2c(c1)CCC[C@H]2CNc1cnccc1C(=O)O [QC6352]
